From PMC12651578, “Ultrasound-Assisted Fibril Formation Enhances Complexation of Oat Globulin with Quercetin: Mechanism, Structure Evolution, Delivery Performance” (Foods, 2025)

What was measured:
[1] = Photostability of Que under 365 nm UV lamp; assay type: physicochemical; settings: 1.32 mW/cm^2, 150 min
Description: The photostability of encapsulated Que was assessed using a 365 nm UV lamp with a light intensity of 1.32 mW/cm^2. Aliquots of 5 mL from each sample group were placed 10 cm away from the UV light source and exposed for various durations (0, 10, 30, 60, 90, 120, and 150 min). The retention of Que in each sample was then measured.

[2] = In vitro simulated gastrointestinal digestion, bioaccessibility of Que; assay type: in vitro ADME; settings: simulated gastric (2 h) and intestinal (2 h) digestion, 37 °C
Description: The release behavior and bioaccessibility of Que in the complex system were evaluated using an in vitro simulated digestion model with modifications based on previous studies. Briefly, sample solutions loaded with Que (protein concentration: 4 mg/mL) were mixed with equal volumes (10 mL) of simulated gastric fluid containing pepsin. The pH was adjusted to 2.0 using 6 M HCl, and the mixture was incubated at 37 °C with shaking at 100 rpm to simulate gastric digestion for 2 h. Afterward, the pH was adjusted to 7.0 to terminate gastric digestion. For intestinal digestion, 5 mL of the gastric digest was mixed with 5 mL of simulated intestinal fluid containing trypsin and bile salts, followed by incubation at 37 °C for another 2 h. The collected digestion products were centrifuged at 10,000× g for 30 min at 4 °C, and the supernatant was analyzed for Que content to determine the bioaccessibility: (8) Bioaccessibility of Que%=Csupernatant/Cdigesta×100% where Csupernatant denotes the Que content in the supernatant after digestion, and Cdigesta refers to the total Que content in the final digesta after simulated gastrointestinal digestion.

[3] = Thermal stability of Que at 85 °C; assay type: physicochemical
Description: The thermal stability of Que was evaluated following a previously described method with slight modifications. Briefly, 5 mL aliquots of free Que suspension (control), OG-Que complex solution, OGF-Que complex solution, and UOGF-Que complex solution were placed in a water bath at 85 °C under dark conditions in sealed containers. At predetermined time intervals (0, 10, 30, 60, 90, 120, and 150 min), samples were withdrawn, rapidly cooled to 25 °C, vortexed, and analyzed for Que retention.

UOGF [4] = molecular target: T1, UOGF; test: Intrinsic protein fluorescence quenching by quercetin (0-30 uM, 0.3 mg/mL protein, pH 3.2, inner filter corrected), double-logarithmic Stern-Volmer plot, 298 K.; assay type: binding; settings: n = 3
T1 construct: amyloid-like fibrils, ultrasound pretreatment (pH 2, 9 W/mL, 20 min) then 90 °C for 18 h, partly hydrolysed
Description: (§1) Intrinsic fluorescence spectroscopy was employed to investigate the interaction between OG and its fibrillar products with Que. The binding capacities of OG, OGF, and UOGF were evaluated at pH 3.2 with various concentrations of Que (0, 2.5, 5, 10, 15, 20, and 30 μM). The mixed samples were incubated at different temperatures of 24.85, 30.85, and 36.85 °C (298, 304, and 310 K) for 30 min. Then the intrinsic fluorescence spectra of each sample (0.3 mg/mL) were recorded using a Cary Eclipse fluorescence spectrophotometer (Agilent Technologies, Santa Clara, CA, USA) following to the previously described protocols. The instrument voltage was set to 650 V, with a slit width and scan rate of 5 nm and 1000 nm/min, respectively. Meanwhile, to correct for the inner filter effect, the following equation was applied as described by Ren et al.. (1) Fc=Fm×10^(Aex+Aem)/2 where Fc and Fm represent the corrected and measured fluorescence intensities, while Aex and Aem denote the absorbance at the excitation and emission wavelengths, respectively.
(§2) The fluorescence quenching mechanism of the complex system was further analyzed by fitting the obtained fluorescence intensity data using the Stern–Volmer equation: (2) F0/F=1+KSVQ=1+Kqτ0Q where F0 and F represent the fluorescence intensities of OG and its fibrils before and after the addition of the polyphenol quencher (Que), respectively; KSV is the Stern–Volmer quenching constant; Kq is the quenching rate constant; [Q] is the concentration of the quencher Que; and τ0 is the average lifetime of the fluorophore in the absence of the quencher.
(§3) Considering the static quenching effect between the OG protein/fibrils and the Que ligand, the binding mechanism was further analyzed using a double logarithmic Stern–Volmer equation: (9) lgF0−F/F=lgKa+nlgQ where the binding constant (Ka) and the number of binding sites (n) are key quantitative parameters reflecting the interaction between the bioactive molecule and the protein; the magnitude of Kₐ indicates the binding affinity between Que and the protein.

OGF [5] = molecular target: T2, OGF; test: as above; assay type: binding; settings: n = 3
T2 construct: amyloid-like fibrils made by acid-heat treatment without ultrasound, partly hydrolysed
Description: as §1, §2, §3

OG [6] = molecular target: T3, OG; test: as above; assay type: binding; settings: n = 3
T3 construct: native oat globulin isolate, unfibrillated, pH 3.2
Description: as §1, §2, §3

UOGF [7] = molecular target: T1, UOGF; test: Intrinsic protein fluorescence quenching by quercetin (0-30 uM, 0.3 mg/mL protein, pH 3.2, inner filter corrected), double-logarithmic Stern-Volmer plot, 304 K.; assay type: binding; settings: n = 3
Description: as §1, §2, §3

OGF [8] = molecular target: T2, OGF; test: as above; assay type: binding; settings: n = 3
Description: as §1, §2, §3

OG [9] = molecular target: T3, OG; test: as above; assay type: binding; settings: n = 3
Description: as §1, §2, §3

UOGF [10] = molecular target: T1, UOGF; test: Intrinsic protein fluorescence quenching by quercetin (0-30 uM, 0.3 mg/mL protein, pH 3.2, inner filter corrected), double-logarithmic Stern-Volmer plot, 310 K.; assay type: binding; settings: n = 3
Description: as §1, §2, §3

OGF [11] = molecular target: T2, OGF; test: as above; assay type: binding; settings: n = 3
Description: as §1, §2, §3

OG [12] = molecular target: T3, OG; test: as above; assay type: binding; settings: n = 3
Description: as §1, §2, §3

Structure (SMILES) | retention rate of Que after UV exposure [1] | bioaccessibility of Que [2] | retention rate of Que after heating ([3]; 30 min) | retention rate of Que after heating ([3]; 150 min) | Ka (M^−1), 298 K (UOGF [4]) | Ka (M^−1), 298 K (OGF [5]) | Ka (M^−1), 298 K (OG [6]) | Ka (M^−1), 304 K (UOGF [7]) | Ka (M^−1), 304 K (OGF [8]) | Ka (M^−1), 304 K (OG [9]) | Ka (M^−1), 310 K (UOGF [10]) | Ka (M^−1), 310 K (OGF [11]) | Ka (M^−1), 310 K (OG [12])
O=c1c(O)c(-c2ccc(O)c(O)c2)oc2cc(O)cc(O)c12 [Que, Quercetin] | 27.78% | 8.21% | 45.13% | 26.48% | – | – | – | – | – | – | – | – | –
O=c1c(O)c(-c2ccc(O)c(O)c2)oc2cc(O)cc(O)c12 [Que, quercetin] | – | – | – | – | 20910 M⁻¹ | 17140 M⁻¹ | 12850 M⁻¹ | 49870 M⁻¹ | 26060 M⁻¹ | 16330 M⁻¹ | 202600 M⁻¹ | 79670 M⁻¹ | 16470 M⁻¹
